Where two headings read alike, the source gives them in different places.
Tested on: Septoria tritici
Assay: curative testing against Septoria tritici on wheat plants in pots, visual score of disease severity
Type: in vivo
Conditions: Zymoseptoria tritici, adjuvant (if any) 0.1 %w/v, spray 200l/ha, read-out: % Efficacy; for Emax at 3 µg/mL: isopyrazam 3 mg per litre; for Emax at 10 µg/mL: isopyrazam 10 mg per litre; for Emax at 30 µg/mL: isopyrazam 30 mg per litre; for Emax at 100 µg/mL: isopyrazam 100 mg per litre
Procedure: The test data relate to curative testing against Septoria tritici on wheat. The wheat plants in pots are inoculated 3 to 5 days prior to spraying as indicated. The isopyrazam is formulated as an aqueous suspension concentrate formulation containing 250 g/l of isopyrazam. The suspension concentrate formulation is diluted to the concentrations of isopyrazam shown in the Tables with water prior to spraying. When adjuvant is included it is used at 0.1 %w/v in the spray dilution unless otherwise indicated. An inert non-adjuvant additive is included in all treatments to provide spray retention. The spray application is 200l/ha.
Three assessments are made per pot of wheat with […] fully randomised. The three replicate pots are visually assessed and given a score of disease severity. The percent efficacy corresponds to the reduction in average disease severity in the treated pots compared to the untreated pots as a percentage of the average disease severity of the untreated pots. Each Table represents a side-by-side experiment.

[1] = Table 2, treatment 4 days, assessment 18 days after inoculation
[2] = Table 3, treatment 4 days, assessment 17 days after inoculation
[3] = Table 4, treatment 4 days, assessment 18 days after inoculation
[4] = Table 5, treatment 3 days, assessment 19 days after inoculation
[5] = Table 6, treatment 4 days, assessment 17 days after inoculation
[6] = Table 7, treatment 4 days, assessment 18 days after inoculation

Question: Which results are given for `CC(C)C1C2CCC1c1c(NC(=O)c3cn(C)nc3C(F)F)cccc12` (stereo not drawn) [isopyrazam, Isopyrazam]?
Answer: Emax at 3 µg/mL [1]: 32%; Emax at 10 µg/mL [1]: 36%; Emax at 30 µg/mL [1]: 47%; Emax at 100 µg/mL [1]: 41%; Emax at 3 µg/mL [2]: 17.9%; Emax at 10 µg/mL [2]: -0.53%; Emax at 30 µg/mL [2]: 10%; Emax at 100 µg/mL [2]: 8.9%; Emax at 3 µg/mL [3]: 41%; Emax at 10 µg/mL [3]: 39%; Emax at 30 µg/mL [3]: 29%; Emax at 100 µg/mL [3]: 25%; Emax at 3 µg/mL [4]: 8.8%; Emax at 10 µg/mL [4]: 9.4%; Emax at 30 µg/mL [4]: 14%; Emax at 100 µg/mL [4]: 0.59%; Emax at 3 µg/mL [5]: 9.1%; Emax at 10 µg/mL [5]: 6.8%; Emax at 30 µg/mL [5]: 19%; Emax at 100 µg/mL [5]: 14%; Emax at 3 µg/mL [6]: 5.1%; Emax at 10 µg/mL [6]: 15%; Emax at 30 µg/mL [6]: -18%; Emax at 100 µg/mL [6]: 32%

— EP2629618B1, “AGROCHEMICAL CO[…]” (Syngenta Limited, priority 2010, dated 2012)
